This passage reports EC90 and CC90 results from patent US20120202794A1 (priority 2011, published 2012).

One data set concerns HCV Replicon 1b. The data set can be described thus: HCV inhibition assay, HCV replicon 1b (Clone A or ET-lunet cells; RT-PCR or luciferase reporter). It is filed as cell-based. The conditions noted are these: Hepatitis C virus, 96 h, HCV replicon 1b; 4 days incubation; read-out: Replicon 1b potency EC90. An outline of the steps:
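Clone A (1500/well) or ET-lunet (3000/well) replicon cells treated with serially diluted compounds (0.5% DMSO, no G418) for 4 days at 37 °C. HCV RNA measured by one-step RT-PCR normalized to rRNA (ΔΔCt) or by luciferase luminescence versus DMSO controls; EC50/EC90 by curve fitting.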
(In antiviral work, replicon cells carry a viral genome segment that copies itself.)

Data set [1] can be described thus: Cell cytotoxicity assay (MTS), CC90 as reported in Table 1, cell line not stated. It is filed as cell-based. The conditions noted are these: human; MTS assay; 8 days incubation; cell line not given. An outline of the steps: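 Compounds, serially diluted from 100 μM, were incubated 8 days at 37° C with Huh7, HepG2 or BxPC3 (2×10^3 cells/well) or CEM (5×10^3 cells/well). Viability was read by MTS, 2 h, absorbance 490 nm. CC90 (90% inhibition) was taken against untreated cells.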

For the compound `CC(C)C[C@H]1C(=O)N[C@@H](C2CCCCC2)CN1C(=O)c1noc(-c2ccc(F)c(F)c2)c1F` [Compound 396, (3S,6S)-6-cyclohexyl-4-(5-(3,4-difluorophenyl)-4-fluoroisoxazole-3-carbonyl)-3-isobutylpiperazin-2-one], the EC90 with HCV Replicon 1b turned out to be 1820 nM. In data set [1], the CC90 at 8 days was greater than 10 µM.

For the compound `CCC[C@H]1C(=O)N[C@@H](c2ccccc2)CN1C(=O)c1cc(-c2ccc(F)cc2)on1` [Compound 397, (3S,6S)-4-(5-(4-fluorophenyl)isoxazole-3-carbonyl)-6-phenyl-3-propylpiperazin-2-one], the EC90 in the data set with HCV Replicon 1b was determined as 890 nM. The compound further displayed a CC90 at 8 days in data set [1] greater than 10 µM.

With `CCC[C@H]1C(=O)N[C@@H](c2ccccc2)CN1C(=O)[C@@H]1C[C@H]1c1ccccc1` [Compound 399, (3S,6S)-6-phenyl-4-((1R,2R)-2-phenylcyclopropanecarbonyl)-3-propylpiperazin-2-one], the EC90 in the data set with HCV Replicon 1b is 2070 nM. Also, the CC90 at 8 days in data set [1] was greater than 10 µM.

For `CC(C)[C@H]1C(=O)N[C@@H](c2ccccc2)CN1C(=O)c1cc(-c2ccc(F)cc2)on1` [Compound 400, (3S,6S)-4-(5-(4-fluorophenyl)isoxazole-3-carbonyl)-3-isopropyl-6-phenylpiperazin-2-one], the concentration for an effect of 90% (EC90) with HCV Replicon 1b was 970 nM. Also, in data set [1], the CC90 at 8 days is greater than 10 µM.

Take `CC(C)[C@H]1C(=O)N[C@@H](c2ccccc2)CN1C(=O)[C@@H]1C[C@H]1c1ccccc1` [Compound 402, (3S,6S)-3-isopropyl-6-phenyl-4-((1R,2R)-2-phenylcyclopropanecarbonyl)piperazin-2-one]: the concentration for an effect of 90% (EC90) in the data set on HCV Replicon 1b is 6630 nM. Further, the CC90 at 8 days in data set [1] was greater than 10 µM.

On to `CC(C)[C@H]1C(=O)N[C@@H](c2ccccc2)CN1C(=O)c1noc(-c2ccc(F)cc2)n1` [Compound 403, (3S,6S)-4-(5-(4-fluorophenyl)-1,2,4-oxadiazole-3-carbonyl)-3-isopropyl-6-phenyl-piperazin-2-ono], for which the EC90 in the data set with HCV Replicon 1b was determined as 270 nM. For the same compound, in data set [1], the CC90 at 8 days was greater than 10 µM.

For the compound `CC(C)[C@H]1C(=O)N[C@@H](c2ccccc2)CN1C(=O)c1nc(-c2ccc(F)cc2)no1` [Compound 404, (3S,6S)-4-(3-(4-fluorophenyl)-1,2,4-oxadiazole-5-carbonyl)-3-isopropyl-6-phenyl-piperazin-2-one], the EC90 in the data set on HCV Replicon 1b worked out at 1580 nM. Besides, the CC90 at 8 days in data set [1] was greater than 10 µM.

For `CC(C)C[C@H]1CN(C(=O)c2noc(-c3ccc(Cl)cc3)n2)[C@@H](CC(C)C)C(=O)N1` [Compound 405, (3S,6S)-4-(5-(4-chlorophenyl)-1,2,4-oxadiazole-3-carbonyl)-3,6-diisobutylpiperazin-2-one], in the data set with HCV Replicon 1b, the EC90 is 320 nM. Further, the CC90 at 8 days in data set [1] is greater than 10 µM.

Regarding `CC(C)C[C@H]1C(=O)N[C@@H](c2ccccc2)CN1C(=O)c1noc(-c2ccc(Cl)cc2)n1` [Compound 406, (3S,6S)-4-(5-(4-chlorophenyl)-1,2,4-oxadiazole-3-carbonyl)-3-isobutyl-6-phenyl-piperazin-2-one], in the data set on HCV Replicon 1b, the EC90 turned out to be 230 nM. The compound also gave a CC90 at 8 days in data set [1] greater than 10 µM.

With `C=CC[C@H]1C(=O)N[C@@H](c2ccccc2)CN1C(=O)c1cc(-c2ccc(F)cc2)on1` [Compound 407, (3S,6S)-3-allyl-4-(5-(4-fluorophenyl)isoxazole-3-carbonyl)-6-phenylpiperazin-2-one], the EC90 in the data set on HCV Replicon 1b was 740 nM. The compound further came in with a CC90 at 8 days in data set [1] greater than 10 µM.

In the case of `C=CC[C@H]1C(=O)N[C@@H](CCC)CN1C(=O)c1cc(-c2ccc(F)cc2)on1` [Compound 409, (3S,6S)-3-allyl-4-(5-(4-fluorophenyl)isoxazole-3-carbonyl)-6-propylpiperazin-2-one], the EC90 in the data set on HCV Replicon 1b stood at 1880 nM. In addition, in data set [1], the CC90 at 8 days was greater than 10 µM.

In the case of `CC(C)C[C@H]1CCN(C(=O)c2cc(-c3ccc(F)cc3)on2)[C@@H](CC(C)C)C(=O)N1` [Compound 411, (3S,7S)-4-(5-(4-fluorophenyl)isoxazole-3-carbonyl)-3,7-diisobutyl-1,4-diazepan-2-one], in the data set on HCV Replicon 1b, the EC90 was greater than 10000 nM. The compound also registered a CC90 at 8 days in data set [1] greater than 10 µM.

Take `CC(C)CC1CNC(=O)[C@H](CC(C)C)N(C(=O)c2cc(-c3ccc(F)cc3)on2)C1` (stereo partly drawn) [Compound 413, (3S)-4-(5-(4-fluorophenyl)isoxazole-3-carbonyl)-3,6-diisobutyl-1,4-diazepan-2-one]: in the data set on HCV Replicon 1b, the EC90 is greater than 10000 nM. In data set [1], this compound displayed a CC90 at 8 days greater than 10 µM.

With `CC(C)C[C@H]1C(=O)N[C@H](c2ccccc2)CCN1C(=O)c1cc(-c2ccc(F)cc2)on1` [Compound 415, (3S,7S)-4-(5-(4-fluorophenyl)isoxazole-3-carbonyl)-3-isobutyl-7-phenyl-1,4-diazepan-2-one], in the data set with HCV Replicon 1b, the EC90 was greater than 10000 nM. In data set [1], this compound had a CC90 at 8 days greater than 10 µM.

Consider `CC(C)C[C@H]1C(=O)N[C@H](c2ccccc2)CCN1C(=O)[C@@H]1C[C@H]1c1ccccc1` [Compound 417, (3S,75)-3-isobutyl-7-phenyl-4-((1R,2R)-2-phenylcyclopropanecarbonyl)-1,4-diazepan-2-one], for which the concentration for an effect of 90% (EC90) with HCV Replicon 1b stood at 7770 nM. This compound yielded a CC90 at 8 days in data set [1] greater than 10 µM.

`CC(C)C[C@H]1C(=O)NC[C@H](c2ccccc2)CN1C(=O)[C@@H]1C[C@H]1c1ccccc1` [Compound 418, (3S,6S)-3-isobutyl-6-phenyl-4-((1R,2R)-2-phenylcyclopropanecarbonyl)-1,4-diazepan-2-one]: the EC90 in the data set on HCV Replicon 1b was greater than 10000 nM. This compound also showed a CC90 at 8 days in data set [1] greater than 10 µM.

Take `CC(C)C[C@H]1C(=O)NC[C@H](c2ccccc2)CN1C(=O)c1cc(-c2ccc(F)cc2)on1` [Compound 420, (3S,6S)-3-isobutyl-6-phenyl-4-(5-(4-fluorophenyl)isoxazole-3-carbonyl)-1,4-diazepan-2-one]: the EC90 in the data set on HCV Replicon 1b is greater than 10000 nM. In data set [1], this compound yielded a CC90 at 8 days greater than 10 µM.

Consider `CC(C)C[C@H]1CN(C(=O)[C@H]2C[C@@H]2c2ccc(F)cc2F)[C@@H](CC(C)C)C(=O)N1` [Compound 421, (3S,6S)-4-[(1S,2S)-2-(2,4-Difluoro-phenyl)-cyclopropanecarbonyl]-3,6-diisobutyl-piperazin-2-one], for which the 90% effect concentration (EC90) with HCV Replicon 1b was greater than 10000 nM. Also, in data set [1], the CC90 at 8 days is greater than 10 µM.

With `C/C=C/[C@H]1CN(C(=O)[C@@H]2C[C@H]2c2ccccc2)[C@@H](CC(C)C)C(=O)N1` [Compound 422, (3S,6S)-3-isobutyl-4-((1R,2R)-2-phenylcyclopropanecarbonyl)-6-((E)-prop-1-en-1-yl)piperazin-2-one], the concentration for an effect of 90% (EC90) with HCV Replicon 1b is 2100 nM. For the same compound, the CC90 at 8 days in data set [1] is greater than 10 µM.

Regarding `CC(C)C[C@H]1C(=O)N[C@H](c2cccs2)CN1C(=O)c1cc(-c2ccc(F)cc2)on1` [Compound 428, (3S,6S)-4-(5-(4-fluorophenyl)isoxazole-3-carbonyl)-3-isobutyl-6-(thiophen-2-yl)piperazin-2-one], the EC90 with HCV Replicon 1b is greater than 10000 nM. This compound also showed a CC90 at 8 days in data set [1] greater than 10 µM.

Regarding `CC(C)C[C@H]1C(=O)N[C@@H](c2cccs2)CN1C(=O)c1nc(-c2ccc(F)cc2)no1` [Compound 431, (3S,6R)-4-(3-(4-fluorophenyl)-1,2,4-oxadiazole-5-carbonyl)-3-isobutyl-6-(thiophen-2-yl)piperazin-2-one], the EC90 with HCV Replicon 1b was determined as 24 nM. Further, in data set [1], the CC90 at 8 days was greater than 10 µM.

Turning to `CC(C)C[C@H]1C(=O)N[C@@H](c2cccs2)CN1C(=O)/C=C/c1ccc(F)cc1F` [Compound 434, (3S,6R)-4-((E)-3-(2,4-difluorophenyl)acryloyl)-3-isobutyl-6-(thiophen-2-yl)pipera-zin-2-one], the EC90 in the data set with HCV Replicon 1b is 48 nM. Also, in data set [1], the CC90 at 8 days is greater than 10 µM.

With `CC(C)C[C@H]1C(=O)N[C@@H](c2cccs2)CN1Cc1cc(-c2ccc(F)cc2)on1` [Compound 435, (3S,6R)-4-((5-(4-fluorophenyl)isoxazol-3-yl)methyl)-3-isobutyl-6-(thiophen-2-yl)piperazin-2-one], the EC90 in the data set on HCV Replicon 1b is 260 nM. In addition, in data set [1], the CC90 at 8 days is greater than 10 µM.

As to `Cc1ccsc1[C@H]1CN(C(=O)[C@@H]2C[C@H]2c2ccc(F)cc2)[C@@H](CC(C)C)C(=O)N1` [Compound 438, (3S,6R)-4-((1R,2R)-2-(4-fluorophenyl)cyclopropanecarbonyl)-3-isobutyl-6-(3-methylthiophen-2-yl)piperazin-2-one], in the data set on HCV Replicon 1b, the EC90 is greater than 10000 nM. For the same compound, the CC90 at 8 days in data set [1] is greater than 10 µM.

For `Cc1ccsc1[C@H]1CN(C(=O)c2noc(-c3ccc(F)cc3)n2)[C@@H](CC(C)C)C(=O)N1` [Compound 441, (3S,6R)-4-(5-(4-fluorophenyl)-1,2,4-oxadiazole-3-carbonyl)-3-isobutyl-6-(3-methylthiophen-2-yl)piperazin-2-one], in the data set with HCV Replicon 1b, the EC90 was greater than 10000 nM. In data set [1], this compound came in with a CC90 at 8 days greater than 10 µM.

As for `CC(C)C[C@H]1C(=O)N[C@@H](C2CCC2)CN1C(=O)c1cc(-c2ccc(F)cc2)on1` [Compound 443, (3S,6S)-6-cyclobutyl-4-(5-(4-fluorophenyl)isoxazole-3-carbonyl)-3-isobutylpiperazin-2-one], the EC90 with HCV Replicon 1b stood at 740 nM. In addition, the CC90 at 8 days in data set [1] is greater than 10 µM.

Consider `C/C=C/[C@H]1CN(C(=O)c2cc(-c3ccc(F)cc3)no2)[C@@H](CC(C)C)C(=O)N1` [Compound 447, (3S,6S)-4-(3-(4-fluorophenyl)isoxazole-5-carbonyl)-3-isobutyl-6-((E)-prop-1-en-1-yl)piperazin-2-one], for which, in the data set with HCV Replicon 1b, the EC90 stood at 140 nM. Besides, the CC90 at 8 days in data set [1] is greater than 10 µM.

For `C/C=C/[C@H]1CN(C(=O)c2noc(-c3ccc(F)cc3)n2)[C@@H](CC(C)C)C(=O)N1` [Compound 448, (3S,6S)-4-(5-(4-fluorophenyl)-1,2,4-oxadiazole-3-carbonyl)-3-isobutyl-6-((E)-prop-1-en-1-yl)piperazin-2-one], the EC90 in the data set on HCV Replicon 1b was 110 nM. In data set [1], this compound had a CC90 at 8 days greater than 10 µM.

One may read the EC90 as the point of the concentration-response curve where the effect stands at 90%.
